Test results as given in patent US20090023799A1, “CRYSTALS OF (2-AMINO-4,5,6,7-TETRAHYDROBENZO[b]THIEN-3-YL)(4-CHLOROPHENYL)METHANONE” (priority 2007, published 2009).
Converted amounts (≈) assume the structure as drawn. Where two headings read alike, the source gives them in different places.

Assays:
[1] = Moisture sorption/desorption analysis; type: physicochemical
Protocol: Moisture sorption/desorption analyses may be performed on a VTI SGA-100 Vapor Sorption Analyzer, or a similar instrument. Sorption and desorption data are collected, e.g., over a range of 5 to 95% relative humidity (RH) at 10% RH intervals under a nitrogen purge. Samples need not to be dried prior to analysis. Equilibrium criteria used for analysis are, e.g., less than 0.01% weight change in 5 min, with a maximum equilibration time of 3 h if the weight criterion is not met. NaCl and PVP may be used as calibration standards.

[2] = Stability to cryogrinding (XRPD); type: physicochemical; conditions: XRPD analysis of the ground material
From the text: (§1) The crystal forms of T-62 are preferably substantially stable to grinding. Stability to grinding may be assessed by measurement of an appropriate physical property before and after grinding. Where the physical property remains substantially unchanged, substantial stability to grinding is indicated. Suitable physico-chemical properties for measurement include a melting point, a X-ray diffraction pattern, an infra red absorption spectrum and a Raman spectrum, particularly the X-ray diffraction pattern. For example, Form I crystal form of T-62 is stable to mechanical milling and cryogrinding as indicated by XRPD analyses of the milled and ground material, respectively.
Stability to cryogrinding may be tested, e.g., by employing a polycarbonate freezer mill tube. The tube is charged with a weighted amount of a crystal form of T-62 and a stainless steel rod is added, the tube is capped and the unit is shaken in a SPEX Certiprep 6750 Freezer Mill for a total of 0.6 min in liquid nitrogen at a rate of 10 Hz.

[3] = Stability to mechanical grinding/milling (ball-milling, XRPD); type: physicochemical; conditions: XRPD analysis of the milled material
From the text: as §1
Stability to mechanical grinding/milling may be tested, e.g., by employing a small stainless steel cylinder. The cylinder is charged with a weighted amount of a crystal form of T-62 and a stainless steel ball is added, the cylinder is capped and the unit is placed on a Retsch Mixer Mill (Type MM 200) for a total of 3 min at a frequency of 30/s (ball-milling).

[4] = Approximate solubilities of Form I crystals of T-62 (solvent added until clear solution); type: physicochemical; conditions: RT
Protocol: Solubilities for Form I crystals of T-62 may be estimated based on total solvent used to give a clear solution. A test solvent, either reagent or HPLC (high pressure liquid chromatography) grade, is added in measured aliquots, e.g., 200 or 500 μL, to an accurately weighed sample of T-62 (typically 50 to 90 mg). For some samples, sonication is applied between solvent additions to aid dissolution. Generally, solvent is added until a clear solution is obtained. Actual solubilities may be greater than those shown in Table 7 because of the volume of the solvent portions utilized or a slow rate of dissolution.

[5] = Solid-state conversion of crystal forms on heating or humidity; type: physicochemical
adenosine A1 receptors = target: T1, adenosine A1 receptors (Homo sapiens, UniProt P30542); conditions: U.S. Pat. No. 6,248,774 and No. 6,489,356, cited from earlier work
T1 sequence (P30542 1-326): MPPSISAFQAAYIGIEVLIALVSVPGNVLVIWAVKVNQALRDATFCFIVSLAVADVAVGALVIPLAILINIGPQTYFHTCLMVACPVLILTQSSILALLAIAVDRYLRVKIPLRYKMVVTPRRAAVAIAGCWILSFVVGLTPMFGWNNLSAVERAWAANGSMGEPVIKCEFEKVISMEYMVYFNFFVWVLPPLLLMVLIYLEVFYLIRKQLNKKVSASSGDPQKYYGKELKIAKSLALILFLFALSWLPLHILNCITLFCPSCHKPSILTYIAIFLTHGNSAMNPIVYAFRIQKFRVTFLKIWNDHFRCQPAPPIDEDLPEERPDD

## Nc1sc2c(c1C(=O)c1ccc(Cl)cc1)CCCC2 [Form II, (2-amino-4,5,6,7-tetrahydrobenzo[b]thiophen-3-yl)(4-chlorophenyl)methanone]
[1]; at 95% RH
  Weight gain in moisture sorption/desorption analysis: 0.1%

## Nc1sc2c(c1C(=O)c1ccc(Cl)cc1)CCCC2 [Form I, (2-amino-4,5,6,7-tetrahydrobenzo[b]thiophen-3-yl)(4-chlorophenyl)methanone]
[2]
  Stability to cryogrinding: stable
[3]
  Stability to mechanical milling: stable
[1]
  Crystal form after moisture sorption/desorption analysis: remains the same
  Weight gain or loss in moisture sorption/desorption analysis: no significant weight gain or loss
[1]; moisture sorption/desorption analysis
  Hygroscopicity: non-hygroscopic
[4]; water
  solubility: practically insoluble
[4]; aqueous with cosolvent or surfactant or cyclodextrin, thermodynamic from solid, ACN:H2O - 1:1, read-out: Solubility
  solubility: 8.4 mg/mL (≈ 28.8 mM)
[4]; organic solvent or mixture, thermodynamic from solid, ACN, read-out: Solubility
  solubility: 11.1 mg/mL (≈ 38 mM)
[4]; organic solvent or mixture, thermodynamic from solid, CHCl3, read-out: Solubility
  solubility: 175 mg/mL (≈ 598 mM)
[4]; organic solvent or mixture, thermodynamic from solid, EtOAc, read-out: Solubility
  solubility: 67.8 mg/mL (≈ 232 mM)
[4]; organic solvent or mixture, thermodynamic from solid, EtOH:H2O - 95:5, read-out: Solubility
  solubility: 12.8 mg/mL (≈ 43.9 mM)
[4]; organic solvent or mixture, thermodynamic from solid, EtOH, read-out: Solubility
  solubility: 16.6 mg/mL (≈ 56.9 mM)
[4]; organic solvent or mixture, thermodynamic from solid, IPA, read-out: Solubility
  solubility: 13.1 mg/mL (≈ 44.9 mM)
[4]; organic solvent or mixture, thermodynamic from solid, MEK, read-out: Solubility
  solubility: 132 mg/mL (≈ 453 mM)
[4]; organic solvent or mixture, thermodynamic from solid, MeOH:H2O - 95:5, read-out: Solubility
  solubility: 8.7 mg/mL (≈ 29.8 mM)
[4]; organic solvent or mixture, thermodynamic from solid, MeOH, read-out: Solubility
  solubility: 19.8 mg/mL (≈ 67.9 mM)
[4]; organic solvent or mixture, thermodynamic from solid, N,N-dimethylformamide (DMF), read-out: Solubility
  solubility: 129 mg/mL (≈ 441 mM)
[4]; organic solvent or mixture, thermodynamic from solid, THF, read-out: Solubility
  solubility: 338 mg/mL (≈ 1160 mM)
[4]; organic solvent or mixture, thermodynamic from solid, acetone, read-out: Solubility
  solubility: 59.8 mg/mL (≈ 205 mM)
[4]; organic solvent or mixture, thermodynamic from solid, cyclohexane, read-out: Solubility
  solubility: 9.8 mg/mL (≈ 33.6 mM)
[4]; organic solvent or mixture, thermodynamic from solid, di-n-butyl ether, read-out: Solubility
  solubility: 21.4 mg/mL (≈ 73.3 mM)
[4]; organic solvent or mixture, thermodynamic from solid, dichloromethane, read-out: Solubility
  solubility: 85.3 mg/mL (≈ 292 mM)
[4]; organic solvent or mixture, thermodynamic from solid, diisopropyl ether, read-out: Solubility
  solubility: 5.9 mg/mL (≈ 20.2 mM)
[4]; organic solvent or mixture, thermodynamic from solid, dimethylsulfoxide (DMSO), read-out: Solubility
  solubility: 183 mg/mL (≈ 626 mM)
[4]; organic solvent or mixture, thermodynamic from solid, dioxane, read-out: Solubility
  solubility: 74.9 mg/mL (≈ 257 mM)
[4]; organic solvent or mixture, thermodynamic from solid, hexanes, read-out: Solubility
  solubility: 5.6 mg/mL (≈ 19.2 mM)
[4]; organic solvent or mixture, thermodynamic from solid, nitromethane, read-out: Solubility
  solubility: 12 mg/mL (≈ 41.1 mM)
[4]; organic solvent or mixture, thermodynamic from solid, octanol, read-out: Solubility
  solubility: 19.7 mg/mL (≈ 67.5 mM)
[4]; organic solvent or mixture, thermodynamic from solid, toluene, read-out: Solubility
  solubility: 45.7 mg/mL (≈ 157 mM)

## Nc1sc2c(c1C(=O)c1ccc(Cl)cc1)CCCC2 [Form IV, (2-amino-4,5,6,7-tetrahydrobenzo[b]thiophen-3-yl)(4-chlorophenyl)methanone]
[5]; heating for 2 min at 75° C. in a sealed capillary
  Crystal form conversion on heating: converted to the Form IV crystal form

## Nc1sc2c(c1C(=O)c1ccc(Cl)cc1)CCCC2 [Form III, (2-amino-4,5,6,7-tetrahydrobenzo[b]thiophen-3-yl)(4-chlorophenyl)methanone]
[5]; heating to about 104° C. under argon purge
  Crystal form conversion on heating: converted to the Form I crystal form
[5]; high humidity, solvent is lost
  Crystal form conversion under high humidity: converts to Form I crystal form
[5]; upon heating
  Crystal form conversion upon heating: converts to Form I crystals

## Nc1sc2c(c1C(=O)c1ccc(Cl)cc1)CCCC2 [Form T-62, (2-amino-4,5,6,7-tetrahydrobenzo[b]thiophen-3-yl)(4-chlorophenyl)methanone]
Adenosine A1 receptors
  Adverse side effects associated with administration of adenosine: devoid of the adverse side effects
Adenosine A1 receptors; orally effective
  Effect on inflammatory and neuropathic pain: reduce inflammatory and neuropathic pain
